Measurements as given in ChEMBL document CHEMBL1201862, “PubChem BioAssay data set” (2004).
Active and inactive are the calls of the source.

Legend:
Escherichia coli = experiment: microbe, parasite or virus in culture
[1] = target: T1, Carboxy-terminal domain RNA polymerase II polypeptide A small phosphatase 1 (Homo sapiens, UniProt Q9GZU7); experiment: inhibitors of CTDSP1, concentration-response testing, biochemical assay, absorbance-based, actives from ultra-high-throughput screening (AID 540297); type: functional
T1 sequence (Q9GZU7 whole entry): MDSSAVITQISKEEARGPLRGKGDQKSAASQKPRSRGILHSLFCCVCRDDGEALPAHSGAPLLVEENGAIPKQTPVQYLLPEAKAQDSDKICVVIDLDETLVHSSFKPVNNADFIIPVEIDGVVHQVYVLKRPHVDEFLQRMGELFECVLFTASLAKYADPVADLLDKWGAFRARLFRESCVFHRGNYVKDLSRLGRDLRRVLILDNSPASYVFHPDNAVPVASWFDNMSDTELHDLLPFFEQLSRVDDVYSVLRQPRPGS

SUMO E1/E2 = SUMO E1/E2 (Homo sapiens, UniProt P63279+Q9UBE0+Q9UBT2); experiment: SAR analysis of SUMOylation using HTRF in an in-Vitro dose response assay. [Related pubchem assays (depositor defined):AID2006, AID2011, AID2018, AID2069, AID2658]; type: functional
Chain of SUMO E1/E2 (Q9UBE0 whole entry): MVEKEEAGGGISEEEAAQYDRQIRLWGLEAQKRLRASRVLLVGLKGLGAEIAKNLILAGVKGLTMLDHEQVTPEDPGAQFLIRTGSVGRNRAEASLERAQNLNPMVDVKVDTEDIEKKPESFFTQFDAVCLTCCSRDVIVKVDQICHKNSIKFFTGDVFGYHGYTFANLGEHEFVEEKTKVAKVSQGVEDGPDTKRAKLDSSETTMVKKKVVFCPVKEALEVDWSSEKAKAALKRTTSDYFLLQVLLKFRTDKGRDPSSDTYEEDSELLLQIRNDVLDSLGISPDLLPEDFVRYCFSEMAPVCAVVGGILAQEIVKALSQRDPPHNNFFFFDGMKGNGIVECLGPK
Chain of SUMO E1/E2 (Q9UBT2 whole entry): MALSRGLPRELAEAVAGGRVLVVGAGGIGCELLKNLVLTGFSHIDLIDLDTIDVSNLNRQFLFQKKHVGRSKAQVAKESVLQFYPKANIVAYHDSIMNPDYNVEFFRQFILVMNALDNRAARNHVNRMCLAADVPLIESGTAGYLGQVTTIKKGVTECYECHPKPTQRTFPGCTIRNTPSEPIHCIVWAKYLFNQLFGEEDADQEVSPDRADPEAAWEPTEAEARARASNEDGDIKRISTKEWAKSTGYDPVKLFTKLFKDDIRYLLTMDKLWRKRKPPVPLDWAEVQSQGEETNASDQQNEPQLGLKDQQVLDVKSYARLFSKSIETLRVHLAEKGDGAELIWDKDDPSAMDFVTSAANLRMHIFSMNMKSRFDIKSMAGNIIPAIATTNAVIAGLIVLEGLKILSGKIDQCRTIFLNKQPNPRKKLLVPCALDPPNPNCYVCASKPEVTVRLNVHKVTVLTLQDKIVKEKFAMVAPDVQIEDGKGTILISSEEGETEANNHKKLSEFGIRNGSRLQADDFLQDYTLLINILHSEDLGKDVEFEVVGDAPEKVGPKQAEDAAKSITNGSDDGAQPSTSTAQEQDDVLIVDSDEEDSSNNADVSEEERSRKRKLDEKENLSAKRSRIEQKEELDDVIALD
Chain of SUMO E1/E2 (P63279 whole entry): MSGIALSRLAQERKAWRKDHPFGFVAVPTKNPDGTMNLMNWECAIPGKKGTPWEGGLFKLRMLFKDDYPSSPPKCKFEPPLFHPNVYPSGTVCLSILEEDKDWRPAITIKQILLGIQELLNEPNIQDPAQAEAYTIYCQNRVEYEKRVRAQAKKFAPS

SUMO-activating enzyme [2] = target: T2, SUMO-activating enzyme (Homo sapiens, UniProt Q9UBT2); experiment: SUMOylation inhibitor hit validation, confirmation, SUMOylation inhibitor project, biochemical, AlphaScreen (AID 2018); type: functional
T2 sequence (Q9UBE0 whole entry): as the sequence (Q9UBE0 whole entry) above
T2 sequence (Q9UBT2 whole entry): as the sequence (Q9UBT2 whole entry) above

SUMO-activating enzyme [3] = target: T2, SUMO-activating enzyme; experiment: inhibitors of in vitro SUMOylation cascade, primary screen, biochemical, HTRF, uHTS (AID 2006); type: protein-complex assay
HEK293 [4] = experiment: cells; settings: Homo sapiens
HEK293 [5] = experiment: cells; settings: Homo sapiens; remark: listed apart in the source
[6] = insulin promoter down-regulators in MIN6 cells, imaging, high-content screening, mouse beta cells (AID 1628); type: functional
[7] = cytotoxicity in MIN6 insulinoma cells, dose response, cytotoxicity control, cell-based, mouse insulinoma (AID 2122); type: functional;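 further: confirmatory high-throughput counterscreen run to flag cytotoxic compounds; mouse MIN-6 beta cells carrying an insulin promoter eGFP reporter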
[8] = target: T3, Calpain-2 catalytic subunit (Sus scrofa, UniProt P43367); experiment: pig calpain II inhibitor potency, dose response, biochemical, fluorogenic peptide substrate (AID 1420); type: functional
T3 sequence (P43367 whole entry): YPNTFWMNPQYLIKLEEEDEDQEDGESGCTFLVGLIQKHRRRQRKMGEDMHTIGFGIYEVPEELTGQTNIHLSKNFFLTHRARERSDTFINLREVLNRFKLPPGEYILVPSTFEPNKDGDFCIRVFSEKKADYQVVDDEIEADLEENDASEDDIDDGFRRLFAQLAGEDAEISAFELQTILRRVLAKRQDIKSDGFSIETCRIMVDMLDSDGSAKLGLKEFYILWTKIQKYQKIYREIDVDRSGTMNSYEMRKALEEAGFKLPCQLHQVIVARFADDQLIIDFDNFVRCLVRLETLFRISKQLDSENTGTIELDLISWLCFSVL

Streptokinase A = target: T4, Streptokinase A (Streptococcus pyogenes serotype M1, UniProt P10520); experiment: S. pyogenes streptokinase expression inhibitors, potency, dose response, plasminogen activation absorbance, OD405 (AID 1914); type: functional, Streptococcus pyogenes M1 GAS;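 further: secreted streptokinase activity via plasminogen activation per viability signal from cell pellet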
T4 sequence (P10520 whole entry): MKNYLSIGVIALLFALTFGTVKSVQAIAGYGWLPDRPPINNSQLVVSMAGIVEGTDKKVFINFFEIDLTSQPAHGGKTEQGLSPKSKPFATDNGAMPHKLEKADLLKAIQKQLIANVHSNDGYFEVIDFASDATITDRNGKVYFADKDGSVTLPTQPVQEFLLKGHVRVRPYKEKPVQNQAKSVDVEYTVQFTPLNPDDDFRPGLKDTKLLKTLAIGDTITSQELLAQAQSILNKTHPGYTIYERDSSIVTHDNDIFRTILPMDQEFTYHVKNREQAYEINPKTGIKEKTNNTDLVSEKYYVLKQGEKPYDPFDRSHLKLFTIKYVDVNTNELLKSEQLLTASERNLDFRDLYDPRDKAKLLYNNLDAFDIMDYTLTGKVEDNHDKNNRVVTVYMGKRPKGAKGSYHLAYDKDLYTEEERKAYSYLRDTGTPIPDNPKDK

[9] = tested on: Streptococcus sp. 'group A'; experiment: growth inhibition of control SK(-) GAS strain, dose response, counter-screen for streptokinase expression inhibitor project, luminescence, kanamycin, BacTiterGlo, confirmation (AID 1900); type: functional, organism-based
Streptococcus = experiment: Group A Streptococcus viability loss, dose response, counter-screen for streptokinase expression inhibitor project, luminescence, BacTiterGlo (AID 1915); type: functional, organism-based;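 further: potency for reduction of bacterial viability or growth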
Cytochrome P450 2D6 = Cytochrome P450 2D6 (Homo sapiens, UniProt P10635);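 further: CYP2D6 member of a cytochrome P450 panel assay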
Chain of Cytochrome P450 2D6 (P10635 whole entry): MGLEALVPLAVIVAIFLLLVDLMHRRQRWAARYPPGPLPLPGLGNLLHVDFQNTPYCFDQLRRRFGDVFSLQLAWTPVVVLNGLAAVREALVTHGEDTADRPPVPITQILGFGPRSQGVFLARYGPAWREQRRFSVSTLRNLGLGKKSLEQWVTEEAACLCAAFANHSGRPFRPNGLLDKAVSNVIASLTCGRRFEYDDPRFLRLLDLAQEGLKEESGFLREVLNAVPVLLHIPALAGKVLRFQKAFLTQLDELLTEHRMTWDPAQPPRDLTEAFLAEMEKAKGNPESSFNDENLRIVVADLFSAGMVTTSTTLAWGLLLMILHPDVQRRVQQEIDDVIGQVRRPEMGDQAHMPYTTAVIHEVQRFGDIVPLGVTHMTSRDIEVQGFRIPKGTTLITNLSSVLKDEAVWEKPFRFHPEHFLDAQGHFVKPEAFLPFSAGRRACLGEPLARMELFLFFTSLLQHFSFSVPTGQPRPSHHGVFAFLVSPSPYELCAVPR

Cytochrome P450 3A4 = Cytochrome P450 3A4 (Homo sapiens, UniProt P08684);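 further: CYP3A4 tested as one member of a cytochrome P450 panel screen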
[10] = target: Glucose-6-phosphate 1-dehydrogenase (Homo sapiens, UniProt P11413); experiment: human G6PD enzyme inhibitors, dose response, selectivity assay for P. falciparum G6PD inhibitor project, biochemical, fluorescence (AID 504792); type: functional
[11] = target: T5, Voltage-gated N-type calcium channel alpha-1B subunit/Amyloid beta A4 precursor protein-binding family A member 1 (Homo sapiens, UniProt Q00975+Q02410); experiment: disruptors of Mint-PDZ/N-type channel peptide interaction – biochemical, HTRF, set 2, SAR follow-up (AID 434980); type: functional
T5 sequence (Q00975 whole entry): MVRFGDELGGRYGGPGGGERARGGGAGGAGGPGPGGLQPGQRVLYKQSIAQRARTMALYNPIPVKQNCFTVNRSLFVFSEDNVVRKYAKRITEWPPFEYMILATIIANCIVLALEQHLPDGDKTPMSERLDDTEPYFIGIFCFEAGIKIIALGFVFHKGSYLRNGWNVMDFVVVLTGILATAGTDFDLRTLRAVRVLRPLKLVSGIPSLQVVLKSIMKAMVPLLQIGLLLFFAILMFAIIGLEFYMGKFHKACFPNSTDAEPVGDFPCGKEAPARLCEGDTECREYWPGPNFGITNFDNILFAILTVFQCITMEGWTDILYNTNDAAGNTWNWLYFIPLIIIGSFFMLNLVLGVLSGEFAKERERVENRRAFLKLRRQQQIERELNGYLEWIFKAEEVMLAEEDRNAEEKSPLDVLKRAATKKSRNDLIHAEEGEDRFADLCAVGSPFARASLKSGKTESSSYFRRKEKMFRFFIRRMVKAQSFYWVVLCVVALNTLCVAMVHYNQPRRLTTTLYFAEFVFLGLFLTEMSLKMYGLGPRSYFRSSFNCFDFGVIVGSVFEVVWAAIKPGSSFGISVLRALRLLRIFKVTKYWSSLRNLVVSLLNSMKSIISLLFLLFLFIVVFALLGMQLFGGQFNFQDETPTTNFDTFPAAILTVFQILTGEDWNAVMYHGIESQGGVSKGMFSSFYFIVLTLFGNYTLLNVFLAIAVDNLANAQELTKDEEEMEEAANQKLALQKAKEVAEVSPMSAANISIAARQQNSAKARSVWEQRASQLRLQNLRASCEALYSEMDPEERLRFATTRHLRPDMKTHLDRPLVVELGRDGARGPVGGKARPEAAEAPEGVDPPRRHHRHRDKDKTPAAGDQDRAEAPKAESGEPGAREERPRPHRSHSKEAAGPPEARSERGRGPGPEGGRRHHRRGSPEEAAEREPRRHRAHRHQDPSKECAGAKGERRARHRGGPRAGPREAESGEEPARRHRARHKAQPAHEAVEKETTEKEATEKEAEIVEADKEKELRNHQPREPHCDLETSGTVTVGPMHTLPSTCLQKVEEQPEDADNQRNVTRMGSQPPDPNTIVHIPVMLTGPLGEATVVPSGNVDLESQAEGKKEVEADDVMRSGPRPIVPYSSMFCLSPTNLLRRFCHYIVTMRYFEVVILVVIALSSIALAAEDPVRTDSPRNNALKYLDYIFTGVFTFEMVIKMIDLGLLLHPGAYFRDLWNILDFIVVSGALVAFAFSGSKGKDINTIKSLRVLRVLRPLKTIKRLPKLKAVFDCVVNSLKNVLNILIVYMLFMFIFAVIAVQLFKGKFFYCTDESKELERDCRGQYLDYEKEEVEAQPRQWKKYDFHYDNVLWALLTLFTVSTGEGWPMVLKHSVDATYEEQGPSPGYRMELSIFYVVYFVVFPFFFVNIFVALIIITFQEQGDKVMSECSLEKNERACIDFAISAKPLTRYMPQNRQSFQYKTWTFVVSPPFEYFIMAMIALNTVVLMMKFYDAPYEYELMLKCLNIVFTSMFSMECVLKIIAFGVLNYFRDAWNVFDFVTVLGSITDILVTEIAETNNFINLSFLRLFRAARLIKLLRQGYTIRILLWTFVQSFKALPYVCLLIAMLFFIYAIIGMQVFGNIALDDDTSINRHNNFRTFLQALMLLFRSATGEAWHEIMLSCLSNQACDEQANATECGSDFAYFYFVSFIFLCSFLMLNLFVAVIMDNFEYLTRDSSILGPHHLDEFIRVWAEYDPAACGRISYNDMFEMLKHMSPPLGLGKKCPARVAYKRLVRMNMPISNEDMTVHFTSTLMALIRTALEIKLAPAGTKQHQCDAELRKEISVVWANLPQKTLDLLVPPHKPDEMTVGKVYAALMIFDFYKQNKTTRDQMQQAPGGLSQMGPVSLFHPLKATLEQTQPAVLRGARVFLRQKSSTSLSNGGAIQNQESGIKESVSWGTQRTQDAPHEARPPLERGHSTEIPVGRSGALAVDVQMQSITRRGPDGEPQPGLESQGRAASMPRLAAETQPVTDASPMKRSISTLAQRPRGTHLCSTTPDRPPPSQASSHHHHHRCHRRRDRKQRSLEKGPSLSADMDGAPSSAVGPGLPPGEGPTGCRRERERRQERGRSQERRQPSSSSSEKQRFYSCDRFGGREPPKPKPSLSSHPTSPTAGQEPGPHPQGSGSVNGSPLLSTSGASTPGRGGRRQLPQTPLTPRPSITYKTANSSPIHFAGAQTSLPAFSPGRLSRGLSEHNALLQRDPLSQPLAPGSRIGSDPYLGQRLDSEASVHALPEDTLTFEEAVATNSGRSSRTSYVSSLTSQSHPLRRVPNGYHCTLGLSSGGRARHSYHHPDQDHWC
T5 sequence (Q02410 whole entry): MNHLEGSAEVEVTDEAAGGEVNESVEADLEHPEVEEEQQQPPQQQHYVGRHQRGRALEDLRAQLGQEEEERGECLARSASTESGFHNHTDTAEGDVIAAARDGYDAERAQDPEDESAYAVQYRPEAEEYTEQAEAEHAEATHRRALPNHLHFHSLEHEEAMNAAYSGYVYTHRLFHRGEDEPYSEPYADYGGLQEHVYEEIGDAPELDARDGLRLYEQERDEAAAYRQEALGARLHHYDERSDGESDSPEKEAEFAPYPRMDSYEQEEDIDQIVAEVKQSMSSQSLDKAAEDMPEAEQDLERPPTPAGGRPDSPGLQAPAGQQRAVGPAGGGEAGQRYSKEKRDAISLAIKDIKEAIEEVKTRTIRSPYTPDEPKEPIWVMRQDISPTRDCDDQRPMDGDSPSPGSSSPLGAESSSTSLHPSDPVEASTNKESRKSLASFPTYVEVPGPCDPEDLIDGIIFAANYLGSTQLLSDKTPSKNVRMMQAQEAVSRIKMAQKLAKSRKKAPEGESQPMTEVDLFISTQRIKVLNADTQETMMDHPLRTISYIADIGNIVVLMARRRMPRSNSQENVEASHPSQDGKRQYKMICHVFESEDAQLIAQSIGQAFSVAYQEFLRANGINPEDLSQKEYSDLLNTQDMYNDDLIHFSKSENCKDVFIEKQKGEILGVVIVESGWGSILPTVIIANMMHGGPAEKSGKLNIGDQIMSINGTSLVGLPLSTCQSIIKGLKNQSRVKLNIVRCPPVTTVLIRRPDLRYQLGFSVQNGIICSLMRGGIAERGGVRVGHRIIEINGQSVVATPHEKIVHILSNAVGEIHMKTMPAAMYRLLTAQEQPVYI

[12] = target: T5, Voltage-gated N-type calcium channel alpha-1B subunit/Amyloid beta A4 precursor protein-binding family A member 1; experiment: disruptors of Mint-PDZ/N-type channel peptide interaction – biochemical, HTRF, SAR follow-up (AID 2489); type: functional
[13] = target: T6, Replicative DNA helicase DnaB (Mycobacterium tuberculosis, UniProt P9WMR3); experiment: DnaB intein splicing inhibitors, dose response, biochemical, cell-free fluorescence (AID 449749); type: functional
T6 sequence (P9WMR3 whole entry): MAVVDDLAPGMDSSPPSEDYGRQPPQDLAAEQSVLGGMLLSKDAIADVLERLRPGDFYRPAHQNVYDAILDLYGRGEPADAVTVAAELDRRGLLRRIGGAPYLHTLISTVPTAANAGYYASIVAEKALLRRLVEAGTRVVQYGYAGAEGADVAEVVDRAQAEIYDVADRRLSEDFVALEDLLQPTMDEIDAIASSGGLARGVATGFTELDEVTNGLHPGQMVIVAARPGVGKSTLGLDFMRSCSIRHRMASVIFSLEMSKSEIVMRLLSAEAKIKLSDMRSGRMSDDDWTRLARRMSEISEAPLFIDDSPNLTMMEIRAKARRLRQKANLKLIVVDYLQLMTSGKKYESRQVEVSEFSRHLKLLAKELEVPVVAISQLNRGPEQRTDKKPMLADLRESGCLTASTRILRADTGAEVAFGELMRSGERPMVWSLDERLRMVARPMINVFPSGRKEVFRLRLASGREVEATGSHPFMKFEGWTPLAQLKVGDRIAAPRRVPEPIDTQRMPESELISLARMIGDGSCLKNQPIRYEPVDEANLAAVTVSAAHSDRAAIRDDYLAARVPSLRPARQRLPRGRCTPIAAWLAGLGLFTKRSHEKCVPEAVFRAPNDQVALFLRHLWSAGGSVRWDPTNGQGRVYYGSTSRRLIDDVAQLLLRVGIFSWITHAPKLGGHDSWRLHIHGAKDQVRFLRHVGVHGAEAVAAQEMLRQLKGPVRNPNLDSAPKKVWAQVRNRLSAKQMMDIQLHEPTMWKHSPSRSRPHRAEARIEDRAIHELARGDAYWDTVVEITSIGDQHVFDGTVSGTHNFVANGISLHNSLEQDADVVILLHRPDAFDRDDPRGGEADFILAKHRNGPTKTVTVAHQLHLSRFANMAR

Protein RecA = target: T7, Protein RecA (Mycobacterium tuberculosis, UniProt P9WHJ3); experiment: Fluorescence Cell-Free Homogeneous Dose Retest to Identify Inhibitors of RecA-Intein Splicing Activity. [Related pubchem assays (depositor defined):AID2097, AID2223, AID489010, AID492950]; type: functional
T7 sequence (P9WHJ3 whole entry): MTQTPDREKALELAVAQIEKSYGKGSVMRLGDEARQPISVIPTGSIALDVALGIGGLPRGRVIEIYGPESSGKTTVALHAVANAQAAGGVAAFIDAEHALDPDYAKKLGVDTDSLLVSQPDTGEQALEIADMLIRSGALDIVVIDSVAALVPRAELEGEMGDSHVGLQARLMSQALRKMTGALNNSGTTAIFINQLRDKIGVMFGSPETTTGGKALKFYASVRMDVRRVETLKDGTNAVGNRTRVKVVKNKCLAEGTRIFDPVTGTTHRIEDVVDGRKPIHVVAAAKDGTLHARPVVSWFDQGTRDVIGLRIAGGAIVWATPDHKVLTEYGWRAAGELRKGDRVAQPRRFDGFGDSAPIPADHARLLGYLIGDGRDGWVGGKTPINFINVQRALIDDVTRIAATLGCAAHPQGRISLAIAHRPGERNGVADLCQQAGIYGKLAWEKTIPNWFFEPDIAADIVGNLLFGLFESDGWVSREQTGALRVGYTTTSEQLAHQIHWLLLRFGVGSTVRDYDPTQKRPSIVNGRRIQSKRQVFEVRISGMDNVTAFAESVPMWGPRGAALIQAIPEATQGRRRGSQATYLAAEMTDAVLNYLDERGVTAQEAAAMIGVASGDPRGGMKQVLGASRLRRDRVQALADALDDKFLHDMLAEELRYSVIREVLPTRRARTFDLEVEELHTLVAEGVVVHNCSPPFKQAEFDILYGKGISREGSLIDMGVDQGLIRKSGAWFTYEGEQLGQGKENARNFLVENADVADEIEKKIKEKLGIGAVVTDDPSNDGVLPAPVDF

O=C(NCc1ccccc1)c1ccc(Br)o1
AC50 (Escherichia coli): 42.9 µM (active)

COc1ccccc1NC(=O)Cn1c(O)c(N=NC(=O)c2ccccc2O)c2ccccc21
IC50 [1]: 2.74 µM (active) | IC50 (SUMO E1/E2): 71.1 µM (active) | IC50 (SUMO-activating enzyme [2]): 6.52 µM (active) | IC50 (SUMO-activating enzyme [3]): 23.8 µM (active)

Cc1ccc(OCCn2cnc3c(N)ncnc32)cc1
EC50 (HEK293 [4]): > 59.6 µM (inactive) | EC50 (HEK293 [5]): > 59.6 µM (inactive)

CCOC(=O)c1cnc(-n2nc(C)cc2C)nc1Nc1ccc(C)cc1
IC50 [6]: 2.56 µM (active) | IC50 [7]: 7.89 µM (active) | IC50 [8]: 5.74 µM (not active) | EC50 (Streptokinase A): > 150 µM (not active) | EC50 [9]: 3.44 µM (active) | EC50 (Streptococcus): > 150 µM (not active)

C[C@@H]1/C=C\CC(=O)OC[C@H]2O[C@@H](C=C[C@@H]2O)[C@H](C)/C=C\CC(=O)OC1
AC50 (Cytochrome P450 2D6): inconclusive | AC50 (Cytochrome P450 3A4): 5.01 µM (inconclusive)

Cc1sc2ccccc2[n+]1CCC(=O)O
AC50 (Cytochrome P450 2D6): inconclusive

Cc1cc(O)nc(N/N=C/c2c(C)nn(-c3ccccc3)c2Cl)n1
IC50 [10]: > 80 µM (inactive)

O=C(CN1CCN(C(c2ccccc2)c2ccccc2)CC1)NC(=O)NCc1ccco1
IC50 [6]: 0.468 µM (active) | IC50 [7]: 0.439 µM (active)

COC(=O)c1ccc(CSc2ncnc3c2sc2nc(N4CCOCC4)c4c(c23)CCCC4)o1
EC50 (HEK293 [4]): > 59.7 µM (inactive) | EC50 (HEK293 [5]): > 59.7 µM (inactive)

O=C(COC(=O)c1cc(-c2ccco2)nc2ccccc12)NCc1ccc(F)cc1
IC50 (SUMO E1/E2): 4.64 µM (active) | IC50 [11]: 11.1 µM (active) | IC50 [12]: 30.4 µM (active)

O=C(CSc1ncnc2c1nnn2Cc1ccccc1F)NCC1CCCO1 (configuration not stated)
AC50 [13]: 15 µM (active) | EC50 (Protein RecA): 16.5 µM (active) | AC50 (Escherichia coli): 58.3 µM (active)
